From patent US8802723B2, “Metabolic syndrome-improving agent and medicine, supplement, functional food and food additive containing the same” (ARKRAY, Inc., priority 2005, dated 2014)

Experiments:
HepG2 cells = experiment: counting of the number of living cells (CellTiter 96 Aqueous One Solution); type: cell-based, human; details: HepG2, 30 hours, control (DMSO) = 100
Experimental: HepG2 was cultured to 80% to 90% confluence in a 100 mm/Collagen-Coated Dish (trade name, manufactured by Iwaki Glass Works, Co.). The medium was removed from the above-noted dish with a pipette and then HepG2 was washed with 2 mL of 1×PBS. Then, 2 mL of trypsin-EDTA was added, the above-noted dish was rotated slowly so that the trypsin-EDTA spread over the entire cells, this trypsin-EDTA was removed with a pipette, and the dish was allowed to stand still for 15 minutes in a CO2 incubator (37° C., 5%). To this dish, 12 mL of a growth medium was added, followed by mixing by pipetting, and 1 mL of this mixture solution was dispensed in each well of Collagen-Coated Microplates 12Well/Flat Bottom (trade name, manufactured by Iwaki Glass Works, Co.). After the cells were checked using a microscope, the wells were cultured in a CO2 incubator (37° C., 5%) for one to two days. After checking that 80% to 90% confluence was achieved using the microscope, a medium replacement was carried out by removing the medium and adding 800 μL of a medium containing aurapten. […] Using this collected medium, the number of living cells were counted, and the Western blotting and the ELISA measurement were carried out similarly to the above. From the result of the ELISA, the ratio of the VLDL secretion amount between the measurement group and the non-treated control group (measurement group/control group) was calculated for each sample.
The measurement was made using CellTiter 96 Aqueous One Solution Cell Proliferation Assay (trade name, manufactured by Promega Corporation). […] 100 μL of this mixture solution was dispensed to each of three wells of ELISA PLATE 96 well (trade name, manufactured by Iwaki Glass Works, Co.), and the absorbance at 490 nm was measured. The measurement was made using wallac ARVOsx (trade name, PerkinElmer Life Sciences, PerkinElmer, Inc.), and the mode of measurement was Absorbance (490 nm, 1.0 S). The ratio of the number of living cells between the measurement group and the non-treated control group (measurement group/control group) was calculated for each sample.

[1] = system: adiponectin secretion in 3T3-L1 cells; experiment: adiponectin secretion amount of 3T3-L1 adipocytes by ELISA; type: cell-based; details: for Adiponectin secretion amount: 3T3-L1 medium supernatant 7 days after differentiation induction, non-treatment control 3.49 ± 0.78, average ± standard error
Experimental: Next, culture preadipocytes 3T-L1 were thawed, inoculated in a 100 mm dish and cultured until 3T3-L 1 cells reached about 80% confluence. A single dish of 3T3-L1 that had reached about 80% confluence was subcultured to a single 6-well plate and further cultured until the 3T3-L1 cells reached confluence in the 6-well plate, and then the medium was replaced with the differentiation induction medium, followed by differentiation induction. 48 hours later, the medium was replaced with the differentiation promotion medium, and thereafter, the medium was replaced with the differentiation promotion medium every two days. 7 days after the initiation of the differentiation induction, mRNA was extracted using Sepasol(R)—RNA I super (manufactured by Nacalai Tesque, Inc.), and the mRNA expression amounts of 36B4, aP2 and adiponectin, which were indicators of an early period of adipocyte differentiation, were measured using Light Cycler™. Also, the medium 7 days after the differentiation induction was taken in an amount of 1 mL from each well, and the amount of adiponectin in the medium supernatant was measured using a mouse/rat adiponectin ELISA kit (trade name) (manufactured by Otsuka Pharmaceutical Co., Ltd.). […]
Only the strips of the antibody plates necessary for the analysis were taken out. […] 100 μL of the standard solutions with respective concentrations and 100 μL of the diluted analytes were added to individual wells and measured in duplicate. Incidentally, the standard solutions always were measured for each measurement and each plate. […] After 100 μL of the substrate solution was added to each well of the antibody plate and allowed to stand still for reaction for 15 minutes at room temperature, 100 μL of the reaction stop solution was added to each well of the antibody plate, and then the absorbance at 450 nm in each well was measured with a plate reader.

## CC(C)=CCC/C(C)=C/COc1ccc2ccc(=O)oc2c1 [Aurapten, aurapten]
HepG2 cells; aurapten 10 μM
  Number of living cells (%): 100.3%
HepG2 cells; aurapten 20 μM
  Number of living cells (%): 99.9%
HepG2 cells; aurapten 50 μM
  Number of living cells (%): 98.7%
[1]; aurapten 1 μM
  Adiponectin secretion amount: 3.64 ± 0.82
[1]; aurapten 5 μM
  Adiponectin secretion amount: 4.69 ± 0.16
[1]; compared with non-treated control medium
  effect on adiponectin secretion in adipocytes (in words): enhance the secretion of adiponectin
